Broadly, the EC50 is the concentration at which the effect is half-maximal. High values mean weaker potency, low ones greater potency. What is called melting point is the temperature, or range, at which the solid turns liquid.

For one data set, the target named is T1, epithelial sodium channels (ENaC), airway epithelial monolayers (Canis lupus familiaris, UniProt A0A8I3MKE6+A0A8I3Q679+Q95165).
T1 sequence (A0A8I3Q679 1-649): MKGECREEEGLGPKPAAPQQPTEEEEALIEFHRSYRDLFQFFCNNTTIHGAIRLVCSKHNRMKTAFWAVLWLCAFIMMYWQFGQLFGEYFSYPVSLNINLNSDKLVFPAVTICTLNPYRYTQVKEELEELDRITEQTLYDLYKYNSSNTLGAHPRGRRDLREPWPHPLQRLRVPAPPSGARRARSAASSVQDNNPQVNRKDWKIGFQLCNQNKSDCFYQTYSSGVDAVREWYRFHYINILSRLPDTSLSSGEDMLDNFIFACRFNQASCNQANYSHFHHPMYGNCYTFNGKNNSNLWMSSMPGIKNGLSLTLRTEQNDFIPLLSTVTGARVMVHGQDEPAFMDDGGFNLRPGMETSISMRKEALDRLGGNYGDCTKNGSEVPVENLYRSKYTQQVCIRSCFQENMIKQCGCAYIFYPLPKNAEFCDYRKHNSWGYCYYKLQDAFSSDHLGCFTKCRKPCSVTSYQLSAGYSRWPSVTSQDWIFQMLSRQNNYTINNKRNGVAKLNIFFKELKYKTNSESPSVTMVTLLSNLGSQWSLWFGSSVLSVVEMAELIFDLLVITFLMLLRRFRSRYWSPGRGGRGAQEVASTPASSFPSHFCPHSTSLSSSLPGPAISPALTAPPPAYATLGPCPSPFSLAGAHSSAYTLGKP
T1 sequence (Q95165 1-641): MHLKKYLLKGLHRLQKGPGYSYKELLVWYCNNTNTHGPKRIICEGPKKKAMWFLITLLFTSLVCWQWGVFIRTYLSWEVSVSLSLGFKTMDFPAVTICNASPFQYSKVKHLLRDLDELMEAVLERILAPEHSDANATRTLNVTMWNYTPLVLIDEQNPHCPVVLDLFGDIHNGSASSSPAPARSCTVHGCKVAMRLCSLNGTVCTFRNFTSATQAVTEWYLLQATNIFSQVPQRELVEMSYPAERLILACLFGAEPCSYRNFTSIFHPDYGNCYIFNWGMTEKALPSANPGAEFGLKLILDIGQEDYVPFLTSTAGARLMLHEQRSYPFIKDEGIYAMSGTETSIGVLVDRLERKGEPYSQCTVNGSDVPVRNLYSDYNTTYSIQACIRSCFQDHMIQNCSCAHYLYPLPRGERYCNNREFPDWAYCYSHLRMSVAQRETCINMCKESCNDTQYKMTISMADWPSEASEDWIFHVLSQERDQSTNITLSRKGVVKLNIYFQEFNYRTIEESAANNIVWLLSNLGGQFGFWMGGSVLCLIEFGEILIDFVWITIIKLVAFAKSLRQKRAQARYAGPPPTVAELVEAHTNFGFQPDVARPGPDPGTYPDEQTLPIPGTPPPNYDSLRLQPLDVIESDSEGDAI
T1 sequence (A0A8I3MKE6 1-646): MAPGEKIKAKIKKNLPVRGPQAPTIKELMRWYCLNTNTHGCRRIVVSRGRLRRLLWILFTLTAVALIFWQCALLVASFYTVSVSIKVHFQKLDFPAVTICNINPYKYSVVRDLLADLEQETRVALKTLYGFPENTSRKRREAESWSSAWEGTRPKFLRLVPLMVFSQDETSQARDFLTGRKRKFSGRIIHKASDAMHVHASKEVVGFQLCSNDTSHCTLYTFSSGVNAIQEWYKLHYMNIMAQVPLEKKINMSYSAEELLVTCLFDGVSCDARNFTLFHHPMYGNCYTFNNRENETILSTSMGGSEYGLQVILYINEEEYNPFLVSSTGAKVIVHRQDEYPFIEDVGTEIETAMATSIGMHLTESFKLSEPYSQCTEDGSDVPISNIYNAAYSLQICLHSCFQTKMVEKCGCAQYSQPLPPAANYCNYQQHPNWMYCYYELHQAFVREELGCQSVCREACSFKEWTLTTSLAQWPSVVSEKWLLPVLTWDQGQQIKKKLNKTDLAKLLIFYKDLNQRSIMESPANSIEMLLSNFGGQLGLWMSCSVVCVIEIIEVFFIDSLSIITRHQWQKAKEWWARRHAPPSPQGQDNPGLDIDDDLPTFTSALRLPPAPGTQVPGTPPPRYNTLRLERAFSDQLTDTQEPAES
As to the kind of experiment: Sodium channel blocking activity: lumenal drug inhibition of airway epithelial sodium currents (short circuit current, ISC) in Ussing chambers. The settings on record: relative potency for PSA 4022 = 100 using EC50 from PSA 4022 in same run. The class given is cell-based, canine. The protocol:
One assay used to assess mechanism of action and/or potency of the compounds of the present invention involves the determination of lumenal drug inhibition of airway epithelial sodium currents measured under short circuit current (ISC) using airway epithelial monolayers mounted in Ussing chambers. Cells obtained from freshly excised human, dog, sheep or rodent airways are seeded onto porous 0.4 micron Snapwell™ Inserts (CoStar), cultured at air-liquid interface (ALI) conditions in hormonally defined media, and assayed for sodium transport activity (ISC) while bathed in Krebs Bicarbonate Ringer (KBR) in Using chambers. All test drug additions are to the lumenal bath with half-log dose addition protocols (from 1×10^−11 M to 3×10^−5 M), and the cumulative change in ISC (inhibition) recorded. All drugs are prepared in dimethyl sulfoxide as stock solutions at a concentration of 1×10^−2 M and stored at −20° C. Eight preparations are typically run in parallel; two preparations per run incorporate amiloride and/or benzamil as positive controls. After the maximal concentration (5×10^−5 M) is administered, the lumenal bath is exchanged three times with fresh drug-free KBR solution, and the resultant ISC measured after each wash for approximately 5 minutes in duration. Reversibility is defined as the percent return to the baseline value for sodium current after the third wash. All data from the voltage clamps are collected via a computer interface and analyzed off-line.
Dose-effect relationships for all compounds are considered and analyzed by the Prism 3.0 program. IC50 values, maximal effective concentrations, and reversibility are calculated and compared to amiloride and benzamil as positive controls.
Treatment Protocol (Assessment of Activity at t-4 hours): The following variation of the standard protocol was used to assess the durability of response following a single exposure to vehicle control (distilled water), positive control compounds (amiloride or benzamil), or investigational agents. At time zero, vehicle control (distilled water), positive control (amiloride), or investigational compounds were aerosolized from a 4 ml volume using a Pari LC JetPlus nebulizer to free-breathing animals. The nebulizer was driven by compressed air with a flow of 8 liters per minute. The time to deliver the solution was 10 to 12 minutes. Animals were restrained in an upright position in a specialized body harness for 4 hours. At the end of the 4-hour period animals received a single dose of aerosolized ^99mTc-Human serum albumin (3.1 mg/ml; containing approximately 20 mCi) from a Raindrop Nebulizer. Animals were extubated immediately following delivery of the total dose of radio-tracer. A baseline deposition image was obtained immediately after radio-aerosol administration. Serial images of the lung were obtained at 15-minute intervals during the first 2 hours after administration of the radio-tracer (representing hours 4 through 6 after drug administration) and hourly for the next 2 hours after dosing for a total observation period of 4 hours. A washout period of at least 7 days separated dosing sessions with different experimental agents. Statistics: Data were analyzed using SYSTAT for Windows, version 5. Data were analyzed using a two-way repeated ANOVA (to assess overall effects), followed by a paried t-test to identify differences between specific pairs. Significance was accepted when P was less than or equal to 0.05. […] The compounds can be further tested for potency in canine bronchial epithelia using the in vitro assay described above. The results for the compounds of the present invention are reported as fold-enhancement values relative to amiloride.
Sodium Channel Blocking Activity of Selected Alaphatic Pyrazinoylguanidines.
On to `N=C(NCCCCCCCN)NC(=O)c1nc(Cl)c(N)nc1N` [compound 18705], for which the “Fold Amiloride** (PSA 4022 = 100)” value is recorded as 8 ± 2 (n = 4).
Still for that read-out and setting: the figure for `N=C(NCCCCCCN)NC(=O)c1nc(Cl)c(N)nc1N` [compound 18706] is 4 ± 1 (n = 4); for `N=C(N)NCCCCCCCCCNC(=N)NC(=O)c1nc(Cl)c(N)nc1N` [compound 19006] it is 11 ± 2 (n = 3).
`N=C(N)NCCCCCCCNC(=N)NC(=O)c1nc(Cl)c(N)nc1N` [compound 19155]: the “Fold Amiloride** (PSA 4022 = 100)” value was 8 ± 7 (n = 3).
On the same count and under the same terms, under `CC(C)(C)OC(=O)NCCCCCCCCNC(=N)NC(=O)c1nc(Cl)c(N)nc1N` [compound 19156] stands 18 ± 2 (n = 2); under `CC(C)(C)OC(=O)NCCCOCCCNC(=N)NC(=O)c1nc(Cl)c(N)nc1N` [compound 19333], 7 ± 2 (n = 4).
`N=C(NCCCCCCCCCN)NC(=O)c1nc(Cl)c(N)nc1N` [compound 19335]: the “Fold Amiloride** (PSA 4022 = 100)” value was 19 ± 7 (n = 4).
The same measure, in the same setting: under `N=C(NCCCCCCCCN)NC(=O)c1nc(Cl)c(N)nc1N` [compound 19336] stands 12 ± 3 (n = 3).
As for `CC(C)(C)OC(=O)NCCCCCCCCCNC(=N)NC(=O)c1nc(Cl)c(N)nc1N` [compound 19484], the “Fold Amiloride** (PSA 4022 = 100)” value is listed as 12 (n = 1).
With `N=C(NCCCCCCCCCCN)NC(=O)c1nc(Cl)c(N)nc1N` [compound 19487], the “Fold Amiloride** (PSA 4022 = 100)” value is reported as 37 ± 1 (n = 4).
Regarding `N=C(N)NCCCCCCCCNC(=N)NC(=O)c1nc(Cl)c(N)nc1N` [compound 19604], the “Fold Amiloride** (PSA 4022 = 100)” value was 63 ± 61 (n = 4).
As for `N=C(N)NCCCCCCCCCCNC(=N)NC(=O)c1nc(Cl)c(N)nc1N` [compound 23608], the “Fold Amiloride** (PSA 4022 = 100)” value is given as 41 ± 29 (n = 2).
For the compound `N=C(NCCCCCCCCCCCCN)NC(=O)c1nc(Cl)c(N)nc1N` [compound 23609], the “Fold Amiloride** (PSA 4022 = 100)” value is reported as 66 ± 36 (n = 4).
Same read-out and setting: the figure for `N=C(NCCCCCCCCCCCN)NC(=O)c1nc(Cl)c(N)nc1N` [compound 23682] is 51 ± 15 (n = 3).
Regarding `N=C(N)NCCCCCCCCCCCCNC(=N)NC(=O)c1nc(Cl)c(N)nc1N` [compound 23683], the “Fold Amiloride** (PSA 4022 = 100)” value is on record as 68 ± 48 (n = 6).
In the case of `CC(C)(C)OC(=O)NCCCCCCCCCCCCNC(=N)NC(=O)c1nc(Cl)c(N)nc1N` [compound 23776], the “Fold Amiloride** (PSA 4022 = 100)” value is given as 7 (n = 1).
The same measure, in the same setting: the figure for `N=C(N)NCCCCCCCCCCCNC(=N)NC(=O)c1nc(Cl)c(N)nc1N` [compound 23991] is 20 ± 12 (n = 4).

The same data set, now with this note: sodium channel blocking activity; short circuit current in airway epithelial monolayers.
Compound `N=C(NCCCCCCCCCN)NC(=O)c1nc(Cl)c(N)nc1N` [compound 19335] came in with a 50% effective concentration (EC50) of 36 ± 7 nM.

Test system in another data set: not given
Assay: not given
Conditions: not given
For the compound `CC(C)(C)OC(=O)N=C(NCCCOCCCNC(=N)NC(=O)c1nc(Cl)c(N)nc1N)NC(=O)OC(C)(C)C`, the melting point was 89 to 93 °C.
